Test results reported in US9486405B2, “Methods for the treatment of pediatric otic disorders” (Otonomy, Inc., priority 2013, dated 2016).

Columns and labels:
[1] = Middle ear histology, one-month acute ototoxicity study; type: in vivo, guinea pig; conditions: at termination; Composition A 2% and 6% single IT-ANT; drops twice daily for 7 days; gentamicin single IT-ANT
Description: (§1) At termination, functional and anatomic assessments of the middle and inner ear compartments were conducted.
Histological analysis of middle ear paraffin sections was conducted at termination.
Middle ear histology—Guinea pigs received vascular perfusion through the heart with an isotonic saline solution followed by fixative containing 4% paraformaldehyde (PFA) in phosphate buffer. Left and right temporal bones were removed and trimmed. Left ear cochleae were designated for inner ear assessment and the right ear cochleae for middle ear histology. Cochleae of the left ear were fixed by intrascalar perfusion of 4% PFA. The temporal bones were then placed in 4% PFA for approximately 1 hour and transferred to a vial containing 0.5% PFA in phosphate buffer. The right temporal bones were trimmed, and then each was placed in a cassette containing 5% EDTA in phosphate buffer. The cassettes were placed into a PELCO 3451 Microwave System, running constantly for 3-5 days. Ears were then dehydrated in EtOH and processed in JB-4 Glycol Methacrylate resin, placed into molds containing the resin and polymerized at ˜4° C. for ˜12 h. Blocks containing temporal bones were trimmed and 5 μm sections were cut with a Leica RM2165 Microtome and stained with Paragon stain. Sections were examined under bright field optics. Middle ear sections were assessed for tissue reaction and inflammatory response. […]

[2] = tested on: inner and outer hair cells; assay: Inner ear cytocochleogram, one-month acute ototoxicity study; type: in vivo, guinea pig; conditions: at termination; 2% and 6% single IT-ANT; drops twice daily for 7 days; gentamicin single IT-ANT
Description: as §1
Inner ear cytocochleogram—The left ear cochleae were carefully removed from the temporal bones and then further dissected, first removing the bony otic capsule, followed by removal of lateral wall tissues, including spiral ligament and stria vascularis. The tectorial membrane was then removed and the cochleae placed in a solution of rhodamine labeled phalloidin, diluted 1:100 in phosphate buffered saline (PBS), for 30-120 min, in the dark, followed by two washes in PBS. The cochlear sensory neural epithelium was then dissected away from the modiolus, starting at the apex, to produce surface preparations of the cochlear spiral. Each segment was mapped for location and placed on a slide. A quantitative assessment of presence or absence of hair cells was then carried out, beginning at apex and proceeding to the base, to produce a cytocochleogram, with presence or absence or hair cells mapped by position along the cochlear spiral.

In the case of gentamicin, the “middle ear histology finding” value [1] is reported as “moderate chronic inflammation” and the “hair cell loss (cytocochleogram)” value [2] is reported as “profound to complete hair cell loss”.
